Reference: patent US12064513B2, “Cationic lipid exhibiting improved intracellular dynamics” (NOF CORPORATION, priority 2018, dated 2024)

Assay: Measurement of Liposomal pKa with TNS, empty LNP (Experimental Example 11)
Type: physicochemical
Details: cationic lipid:DOPC:Chol:DMG-PEG2k=52.5:7.5:40:1.5
Method: 20 mM Citrate buffer, sodium phosphate buffer and tris HCl buffer each containing NaCl at a final concentration of 150 mM and adjusted to various pHs within the range of pH 3.0-10.0 were prepared. LNP prepared in [Experimental Example 3], 1, was diluted with PBS to a lipid concentration of 0.5 mM. TNS (manufactured by Sigma) was diluted with ultrapure water to 0.6 mM. TNS solution (2 μL), various LNP solutions (12 μL), and buffers adjusted to various pHs (186 μL) were added to a black 96 well plate. The plate was protected from light and shaken at 400 rpm for 10 min. The fluorescence intensity (excitation: 321 nm/emission: 447 nm) was measured using a plate reader (manufactured by TECAN). The relative fluorescence intensity was calculated as a percentage, with the maximum value of the fluorescence intensity in each LNP being 100% and the minimum value being 0%. Furthermore, the pH at which the relative fluorescence intensity was 50% was taken as Liposomal pKa.
For the evaluation of Liposomal pKa, empty LNP not encapsulating nucleic acid was used. The empty LNP (cationic lipid:DOPC:Chol:DMG-PEG2k=52.5:7.5:40:1.5) was produced by performing particle preparation in the method described in [Experimental Example 10] without using a nucleic acid.
Liposomal pKa was calculated by the method described in [Experimental Example 3].

## CCCCCCCC/C=C\CCCCCCCC(=O)Oc1ccc(CC(=O)NCCC2CCN(CCSSCCN3CCC(CCNC(=O)Cc4ccc(OC(=O)CCCCCCC/C=C\CCCCCCCC)cc4)CC3)CC2)cc1 [O-Ph-amide-P4C2]
  Liposomal pKa: improved pKa
